Laboratory results published in ChEMBL document CHEMBL1201861, “Genomics of Drug Sensitity in Cancer screening data, Wellcome Trust Sanger Institute”.

Key:
Assay in all cases: cells
KU812 cell line = assay type: functional, cell-based, Homo sapiens; settings: Homo sapiens, KU812
Description: SANGER: Inhibition of human KU812 cell growth in a cell viability assay.

JVM-2 = assay type: functional, cell-based, Homo sapiens; settings: Homo sapiens, JVM-2
Description: SANGER: Inhibition of human JVM-2 cell growth in a cell viability assay.

RCC10RGB = assay type: functional, cell-based, Homo sapiens; settings: Homo sapiens, RCC10RGB
Description: SANGER: Inhibition of human RCC10RGB cell growth in a cell viability assay.

HCC2218 = assay type: functional, cell-based, Homo sapiens; settings: Homo sapiens, HCC2218
Description: SANGER: Inhibition of human HCC2218 cell growth in a cell viability assay.

SK-MEL-1 = assay type: functional, cell-based, Homo sapiens; settings: Homo sapiens, SK-MEL-1
Description: SANGER: Inhibition of human SK-MEL-1 cell growth in a cell viability assay.

LU-139 = assay type: functional, cell-based, Homo sapiens; settings: Homo sapiens, LU-139
ETK-1 = assay type: functional, cell-based, Homo sapiens; settings: Homo sapiens, ETK-1
Description: SANGER: Inhibition of human ETK-1 cell growth in a cell viability assay.

ES4 = assay type: functional, cell-based, Homo sapiens; settings: Homo sapiens, ES4
VA-ES-BJ = assay type: functional, cell-based, Homo sapiens; settings: Homo sapiens, VA-ES-BJ
Description: SANGER: Inhibition of human VA-ES-BJ cell growth in a cell viability assay.

Mo = assay type: functional, cell-based, Homo sapiens; settings: Homo sapiens, Mo
Description: SANGER: Inhibition of human Mo-T cell growth in a cell viability assay.

no-10 = assay type: functional, cell-based, Homo sapiens; settings: Homo sapiens
IST-MEL1 = assay type: functional, cell-based, Homo sapiens; settings: Homo sapiens, IST-MEL1
Description: SANGER: Inhibition of human IST-MEL1 cell growth in a cell viability assay.

697 = assay type: functional, cell-based, Homo sapiens; settings: Homo sapiens
GOTO = assay type: functional, cell-based, Homo sapiens; settings: Homo sapiens, GOTO
Description: SANGER: Inhibition of human GOTO cell growth in a cell viability assay.

CTB-1 = assay type: functional, cell-based, Homo sapiens; settings: Homo sapiens, CTB-1
Description: SANGER: Inhibition of human CTB-1 cell growth in a cell viability assay.

ONS-76 = assay type: functional, cell-based, Homo sapiens; settings: Homo sapiens, ONS-76
Description: SANGER: Inhibition of human ONS-76 cell growth in a cell viability assay.

KNS-42 = assay type: functional, cell-based; settings: Homo sapiens
Description: SANGER: Inhibition of human KNS-42 cell growth in a cell viability assay.

SH-4 = assay type: functional, cell-based; settings: Homo sapiens
MN-60 = assay type: functional, cell-based, Homo sapiens; settings: Homo sapiens, MN-60
Description: SANGER: Inhibition of human MN-60 cell growth in a cell viability assay.

MC116 = assay type: functional, cell-based, Homo sapiens; settings: Homo sapiens, MC116
Description: SANGER: Inhibition of human MC116 cell growth in a cell viability assay.

HT-144 = assay type: functional, cell-based, Homo sapiens; settings: Homo sapiens, HT-144
Description: SANGER: Inhibition of human HT-144 cell growth in a cell viability assay.

SW982 = assay type: functional, cell-based; settings: Homo sapiens
Description: SANGER: Inhibition of human SW982 cell growth in a cell viability assay.

RXF 393 = assay type: functional, cell-based, Homo sapiens; settings: Homo sapiens, RXF 393
Description: SANGER: Inhibition of human RXF393 cell growth in a cell viability assay.

KGN = assay type: functional, cell-based, Homo sapiens; settings: Homo sapiens, KGN
Description: SANGER: Inhibition of human KGN cell growth in a cell viability assay.

KALS-1 = assay type: functional, cell-based, Homo sapiens; settings: Homo sapiens, KALS-1
Description: SANGER: Inhibition of human KALS-1 cell growth in a cell viability assay.

EM-2 = assay type: functional, cell-based, Homo sapiens; settings: Homo sapiens, EM-2
Description: SANGER: Inhibition of human EM-2 cell growth in a cell viability assay.

SCC-15 = assay type: functional, cell-based, Homo sapiens; settings: Homo sapiens, SCC-15
BB49-HNC = assay type: functional, cell-based, Homo sapiens; settings: Homo sapiens, BB49-HNC
Description: SANGER: Inhibition of human BB49-HNC cell growth in a cell viability assay.

KP-N-YS = assay type: functional, cell-based, Homo sapiens; settings: Homo sapiens, KP-N-YS
Description: SANGER: Inhibition of human KP-N-YS cell growth in a cell viability assay.

KS-1 = assay type: functional, cell-based; settings: Homo sapiens
Description: SANGER: Inhibition of human KS-1 cell growth in a cell viability assay.

NOS-1 = assay type: functional, cell-based, Homo sapiens; settings: Homo sapiens, NOS-1
Description: SANGER: Inhibition of human NOS-1 cell growth in a cell viability assay.

EKVX = assay type: functional, cell-based, Homo sapiens; settings: Homo sapiens, EKVX
Description: SANGER: Inhibition of human EKVX cell growth in a cell viability assay.

TGBC24TKB = assay type: functional, cell-based; settings: Homo sapiens
Description: SANGER: Inhibition of human TGBC24TKB cell growth in a cell viability assay.

DB = assay type: functional, cell-based, Homo sapiens; settings: Homo sapiens, DB
Description: SANGER: Inhibition of human DB cell growth in a cell viability assay.

EW-3 = assay type: functional, cell-based, Homo sapiens; settings: Homo sapiens, EW-3
Description: SANGER: Inhibition of human EW-3 cell growth in a cell viability assay.

NCI-H2126 = assay type: functional, cell-based, Homo sapiens; settings: Homo sapiens, NCI-H2126
NCI-H446 = assay type: functional, cell-based, Homo sapiens; settings: Homo sapiens, NCI-H446
Description: SANGER: Inhibition of human NCI-H446 cell growth in a cell viability assay.

MSTO-211H = assay type: functional, cell-based, Homo sapiens; settings: Homo sapiens, MSTO-211H
Description: SANGER: Inhibition of human MSTO-211H cell growth in a cell viability assay.

TE-11 = assay type: functional, cell-based; settings: Homo sapiens
Description: SANGER: Inhibition of human TE-11 cell growth in a cell viability assay.

MZ1-PC = assay type: functional, cell-based, Homo sapiens; settings: Homo sapiens, MZ1-PC
GI-ME-N = assay type: functional, cell-based, Homo sapiens; settings: Homo sapiens, GI-ME-N
Description: SANGER: Inhibition of human GI-ME-N cell growth in a cell viability assay.

TGW = assay type: functional, cell-based, Homo sapiens; settings: Homo sapiens, TGW
Description: SANGER: Inhibition of human TGW cell growth in a cell viability assay.

TGBC1TKB = assay type: functional, cell-based, Homo sapiens; settings: Homo sapiens, TGBC1TKB
Description: SANGER: Inhibition of human TGBC1TKB cell growth in a cell viability assay.

SF-539 = assay type: functional, cell-based, Homo sapiens; settings: Homo sapiens, SF-539
Description: SANGER: Inhibition of human SF539 cell growth in a cell viability assay.

KURAMOCHI = assay type: functional, cell-based, Homo sapiens; settings: Homo sapiens, KURAMOCHI
Description: SANGER: Inhibition of human KURAMOCHI cell growth in a cell viability assay.

NCI-H1650 = assay type: functional, cell-based, Homo sapiens; settings: Homo sapiens, NCI-H1650
Description: SANGER: Inhibition of human NCI-H1650 cell growth in a cell viability assay.

RPMI-8866 = assay type: functional, cell-based, Homo sapiens; settings: Homo sapiens, RPMI-8866
LB831-BLC = assay type: functional, cell-based, Homo sapiens; settings: Homo sapiens, LB831-BLC
Description: SANGER: Inhibition of human LB831-BLC cell growth in a cell viability assay.

K562 = assay type: functional, cell-based, Homo sapiens; settings: Homo sapiens, K562
HL-60 = assay type: functional, cell-based, Homo sapiens; settings: Homo sapiens, HL-60
Description: SANGER: Inhibition of human HL-60 cell growth in a cell viability assay.

ES5 = assay type: functional, cell-based, Homo sapiens; settings: Homo sapiens, ES5
Description: SANGER: Inhibition of human ES5 cell growth in a cell viability assay.

## O=S(=O)(O)c1ccc2cc(/N=N/c3cc(S(=O)(=O)O)c4cccnc4c3O)ccc2c1
KU812 cell line
  IC50: > 16 µM
JVM-2
  IC50: > 16 µM
RCC10RGB
  IC50: > 16 µM
HCC2218
  IC50: > 16 µM
SK-MEL-1
  IC50: > 16 µM
LU-139
  IC50: > 16 µM
ETK-1
  IC50: > 16 µM
ES4
  IC50: > 16 µM
VA-ES-BJ
  IC50: > 16 µM
Mo
  IC50: > 16 µM
no-10
  IC50: > 16 µM
IST-MEL1
  IC50: > 16 µM
697
  IC50: > 16000 nM
GOTO
  IC50: > 16 µM
CTB-1
  IC50: > 16 µM
ONS-76
  IC50: > 16 µM
KNS-42
  IC50: > 16 µM
SH-4
  IC50: > 16 µM
MN-60
  IC50: > 16 µM
MC116
  IC50: > 16000 nM
HT-144
  IC50: > 16 µM
SW982
  IC50: > 16 µM
RXF 393
  IC50: > 16000 nM
KGN
  IC50: > 16000 nM
KALS-1; read-out: IC50
  IC50: > 16 µM
EM-2
  IC50: > 16000 nM
SCC-15
  IC50: > 16 µM
BB49-HNC
  IC50: > 16 µM
KP-N-YS
  IC50: > 16 µM
KS-1
  IC50: > 16 µM
NOS-1
  IC50: > 16000 nM
EKVX
  IC50: > 16 µM
TGBC24TKB
  IC50: > 16 µM
DB
  IC50: > 16 µM
EW-3
  IC50: > 16 µM
NCI-H2126
  IC50: > 16 µM
NCI-H446
  IC50: > 16 µM
MSTO-211H
  IC50: > 16 µM
TE-11
  IC50: > 16000 nM
MZ1-PC
  IC50: > 16 µM
GI-ME-N
  IC50: > 16000 nM
TGW
  IC50: > 16000 nM
TGBC1TKB
  IC50: > 16 µM
SF-539
  IC50: > 16 µM
KURAMOCHI
  IC50: > 16 µM
NCI-H1650
  IC50: > 16 µM
RPMI-8866
  IC50: > 16 µM
LB831-BLC
  IC50: > 16 µM
K562
  IC50: > 16 µM
HL-60
  IC50: > 16 µM
ES5
  IC50: > 16 µM

## CCCCCCCCCCCC1=C(O)C(=O)C=C(O)C1=O [EMBELIN]
KU812 cell line
  IC50: > 32 µM
JVM-2
  IC50: > 32 µM
RCC10RGB
  IC50: > 32 µM
HCC2218
  IC50: 13 µM
SK-MEL-1
  IC50: > 32 µM
LU-139
  IC50: > 32 µM
ETK-1
  IC50: 9.75 µM
ES4
  IC50: 4.52 µM
VA-ES-BJ
  IC50: 10.7 µM
Mo
  IC50: > 32 µM
no-10
  IC50: 13.9 µM
IST-MEL1
  IC50: 7.9 µM
697
  IC50: > 32000 nM
GOTO
  IC50: 23.6 µM
CTB-1
  IC50: 28 µM
ONS-76
  IC50: 8.45 µM
KNS-42
  IC50: > 32 µM
SH-4
  IC50: 24.9 µM
MN-60
  IC50: > 32 µM
MC116
  IC50: 2820 nM
HT-144
  IC50: 8.74 µM
SW982
  IC50: 7.34 µM
RXF 393
  IC50: > 32000 nM
KGN
  IC50: 3220 nM
KALS-1; read-out: IC50
  IC50: 14.9 µM
EM-2
  IC50: > 32000 nM
SCC-15
  IC50: 7.81 µM
BB49-HNC
  IC50: > 32 µM
KP-N-YS
  IC50: > 32 µM
KS-1
  IC50: 14.5 µM
NOS-1
  IC50: 4670 nM
EKVX
  IC50: > 32 µM
TGBC24TKB
  IC50: 26.5 µM
DB
  IC50: > 32 µM
EW-3
  IC50: > 32 µM
NCI-H2126
  IC50: 27.9 µM
NCI-H446
  IC50: > 32 µM
MSTO-211H
  IC50: > 32 µM
TE-11
  IC50: > 32000 nM
MZ1-PC
  IC50: 5.71 µM
GI-ME-N
  IC50: > 32000 nM
TGW
  IC50: > 32000 nM
TGBC1TKB
  IC50: 11 µM
SF-539
  IC50: 15.4 µM
KURAMOCHI
  IC50: 7.06 µM
NCI-H1650
  IC50: 20.8 µM
RPMI-8866
  IC50: 8.1 µM
LB831-BLC
  IC50: 12.6 µM
K562
  IC50: 31.7 µM
HL-60
  IC50: 8.85 µM
ES5
  IC50: > 32 µM

## COc1cc(N2CCC(N3CCN(C)CC3)CC2)ccc1Nc1ncc(Cl)c(Nc2ccccc2S(=O)(=O)C(C)C)n1 [TAE-684]
KU812 cell line
  IC50: > 2 µM
JVM-2
  IC50: > 2 µM
RCC10RGB
  IC50: > 2 µM
HCC2218
  IC50: > 2 µM
SK-MEL-1
  IC50: > 2 µM
LU-139
  IC50: > 2 µM
ETK-1
  IC50: 1.34 µM
ES4
  IC50: 0.491 µM
VA-ES-BJ
  IC50: > 2 µM
Mo
  IC50: > 2 µM
no-10
  IC50: > 2 µM
IST-MEL1
  IC50: > 2 µM
697
  IC50: 432 nM
GOTO
  IC50: > 2 µM
CTB-1
  IC50: > 2 µM
ONS-76
  IC50: > 2 µM
KNS-42
  IC50: > 2 µM
SH-4
  IC50: > 2 µM
MN-60
  IC50: > 2 µM
MC116
  IC50: > 2000 nM
HT-144
  IC50: 1.63 µM
SW982
  IC50: 0.165 µM
RXF 393
  IC50: 558 nM
KGN
  IC50: 662 nM
KALS-1; read-out: IC50
  IC50: 1.34 µM
EM-2
  IC50: 1850 nM
SCC-15
  IC50: > 2 µM
BB49-HNC
  IC50: > 2 µM
KP-N-YS
  IC50: > 2 µM
KS-1
  IC50: 0.193 µM
NOS-1
  IC50: 103 nM
EKVX
  IC50: > 2 µM
TGBC24TKB
  IC50: 0.302 µM
DB
  IC50: > 2 µM
EW-3
  IC50: > 2 µM
NCI-H2126
  IC50: > 2 µM
NCI-H446
  IC50: > 2 µM
MSTO-211H
  IC50: > 2 µM
TE-11
  IC50: 161 nM
MZ1-PC
  IC50: 0.178 µM
GI-ME-N
  IC50: 1250 nM
TGW
  IC50: 859 nM
TGBC1TKB
  IC50: > 2 µM
SF-539
  IC50: < 0.00781 µM
KURAMOCHI
  IC50: 1.7 µM
NCI-H1650
  IC50: > 2 µM
RPMI-8866
  IC50: > 2 µM
LB831-BLC
  IC50: 0.55 µM
K562
  IC50: > 2 µM
HL-60
  IC50: 0.481 µM
ES5
  IC50: > 2 µM

## Cc1ccc(NC(=O)c2ccc(CN3CCN(C)CC3)cc2)cc1Nc1nccc(-c2cccnc2)n1 [IMATINIB]
KU812 cell line
  IC50: > 2 µM
JVM-2
  IC50: > 2 µM
RCC10RGB
  IC50: > 2 µM
HCC2218
  IC50: > 2 µM
SK-MEL-1
  IC50: > 2 µM
LU-139
  IC50: > 2 µM
ETK-1
  IC50: > 2 µM
ES4
  IC50: > 2 µM
VA-ES-BJ
  IC50: > 2 µM
Mo
  IC50: > 2 µM
no-10
  IC50: > 2 µM
IST-MEL1
  IC50: > 2 µM
697
  IC50: > 2000 nM
GOTO
  IC50: > 2 µM
CTB-1
  IC50: > 2 µM
ONS-76
  IC50: > 2 µM
KNS-42
  IC50: > 2 µM
SH-4
  IC50: > 2 µM
MN-60
  IC50: > 2 µM
MC116
  IC50: > 2000 nM
HT-144
  IC50: > 2 µM
SW982
  IC50: > 2 µM
RXF 393
  IC50: > 2000 nM
KGN
  IC50: > 2000 nM
KALS-1
  IC50: > 2 µM
EM-2
  IC50: 88.8 nM
SCC-15
  IC50: > 2 µM
BB49-HNC
  IC50: > 2 µM
KP-N-YS
  IC50: > 2 µM
KS-1
  IC50: > 2 µM
NOS-1
  IC50: 1650 nM
EKVX
  IC50: > 2 µM
TGBC24TKB
  IC50: > 2 µM
DB
  IC50: > 2 µM
EW-3
  IC50: > 2 µM
NCI-H2126
  IC50: > 2 µM
NCI-H446
  IC50: > 2 µM
MSTO-211H
  IC50: > 2 µM
TE-11
  IC50: > 2000 nM
MZ1-PC
  IC50: > 2 µM
GI-ME-N
  IC50: > 2000 nM
TGW
  IC50: > 2000 nM
TGBC1TKB
  IC50: > 2 µM
SF-539
  IC50: > 2 µM
RPMI-8866
  IC50: > 2 µM
LB831-BLC
  IC50: > 2 µM
K562
  IC50: 0.224 µM
HL-60
  IC50: > 2 µM
ES5
  IC50: > 2 µM
